Here are results for 3 compounds from ChEMBL document CHEMBL1132738, “Carbohydrate-modulated DNA photocleavage: design, synthesis, and evaluation of novel glycosyl anthraquinones” (Bioorg Med Chem Lett, 2000).

The subject of test [1] is HeLa. The test can be described thus: The compound was evaluated for its inhibitory activity against HeLa S3 cells in the absence of photoirradiation. The format is functional, cell-based. The settings on record: Homo sapiens, light or radiation study.
Test [2] has as its system HeLa. As to the kind of experiment: The compound was evaluated for its inhibitory activity against HeLa S3 cells in the presence of photoirradiation. The test is classed as functional, cell-based. As to conditions: Homo sapiens, light or radiation study.

With `C[C@@H]1O[C@H](OCc2ccc3c(c2O)C(=O)c2ccccc2C3=O)C[C@@H](N(C)C)[C@@H]1O`, the IC50 in the test on HeLa [1] stood at 13 µM; in the test on HeLa [2], 4.3 µM.

`C[C@@H]1O[C@@H](OCc2ccc3c(c2O)C(=O)c2ccccc2C3=O)C[C@@H](N(C)C)[C@@H]1O`: the IC50 came to 8.8 µM in the test on HeLa [1] and 1.9 µM in the test with HeLa [2].

In the case of `CC1OC(c2ccc3c(c2O)C(=O)c2ccccc2C3=O)CC(N(C)C)C1O` (stereo unspecified), the IC50 worked out at 9 µM with HeLa [1] and 4.8 µM in the test on HeLa [2].
